This is an account of results in patent US20260345792A1, “PROTACs AND HyT-PD MOLECULES FOR TARGETED PROTEIN DEGRADATION OF DCAF15 AND THEIR USE IN THE TREATMENT OF AMYLOIDOSIS” (KRÆFTENS BEKÆMPELSE, priority 2023, published 2026).

Where a SMILES comes first, the peptide text is derived from it. The star is where a group is joined. Cbz = O=C(OCc1ccccc1)*

Data set [1] relates to HCT116 cells. The data set is described as follows: Clearance of protein aggregates: puromycin with Bafilomycin or MG132. Format: cell-based. Conditions: with 5 μg/ml puromycin 4 h; 200 nM Bafilomycin or 5 μM MG132. The procedure:
Cells were fixed and stained for ubiquitin and p62. A representative experiment is shown (n=3).
HCT116 cells were treated with 5 μg/ml puromycin for 4 h alone or in combination with 200 nM Bafilomycin-1 or 5 μM MG132. Cells were fixed and stained for ubiquitin and p62. A representative experiment is shown (n=3) (see FIG. 3A). The double positive puncta per cell was quantified (see FIG. 3B).

Another data set deals with HCT116 cells; BE2C cells. Nature of the data set: Ubiquitin and p62 co-stained aggregates per cell after puromycin, by DCAF15 genotype. Format: cell-based. Conditions: 5 μg/ml puromycin, 4 h; DCAF15−/− vs WT and reconstituted cell lines. The procedure: Cells were stained for ubiquitinated proteins and p62. Separate and merged channels from a representative experiment are shown (n>3).
HCT116 cells with indicated genotypes were treated with 5 μg/ml puromycin for 4 h or left untreated (NT) before fixation. Cells were stained for ubiquitinated proteins and p62. Separate and merged channels from a representative experiment are shown (n>3) (see FIG. 1A). The number of ubiquitin and p62 co-stained aggregates per cell were quantified (see FIG. 1B.).
BE2C cells with indicated genotypes were treated and analysed as above (n=3). Separate and merged channels from a representative experiment are shown (n>3) (see FIG. 1C). The number of ubiquitin and p62 co-stained aggregates per cell were quantified (see FIG. 1D.).
Cell lines: WT (wild-type), DCAF15−/− (CRISPR-mediated stable DCAF15−/− knock-out cells), DCAF15−/−+WT 3xF (DCAF15−/− cells reconstituted with WT DCAF15 with 3×flag-tag).

The test system of data set [2] is HCT116 cells. Nature of the data set: Proliferation (confluency) and clonogenic survival after puromycin, by DCAF15 genotype. It counts as cell-based. Conditions: 5 μg/ml puromycin 4 h. The procedure:
Confluency was recorded with imaging every 4 h. Representative experiments with technical triplicates are shown (n=3).
HCT116 cells were treated with 5 μg/ml puromycin for 4 h or left untreated before being released into normal growth media for 72 h. Confluency was recorded with imaging every 4 h, representative experiments with technical triplicates (n=3) are shown (see FIG. 4A.). HCT116 cells were treated with 5 μg/ml puromycin for 4 h before release into full media or left untreated for 7 days before fixation and crystal violet staining (see FIG. 4B.). Quantification of FIG. 4B as integrated density per well (see FIG. 4C).

The subject of the next data set is DCAF15. The note with it: Han et al., 2017 and WO 2022/169755; cited from earlier work.
A further data set relates to human cancer cell lines. The note with it: cited from earlier work.

With `CO/C1=C\C(C)=C\[C@@H](C)[C@@H](O)[C@@H](C)C/C(C)=C/C=C/[C@H](OC)[C@@H]([C@@H](C)[C@@H](O)[C@H](C)[C@@]2(O)C[C@@H](O)[C@H](C)[C@@H](C(C)C)O2)OC1=O` [Bafilomycin A1], in the data set with HCT116 cells [1], the “aggregate numbers in WT and reconstituted cell lines” value was “enhance aggregate numbers in WT and reconstituted cell lines”; the “re-appearance of aggregates in DCAF15−/− cells” value is “we do not detect any re-appearance of aggregates in DCAF15−/− cells after treatments”.
As to `CC(C)C[C@@H](C=O)NC(=O)[C@H](CC(C)C)NC(=O)[C@H](CC(C)C)NC(=O)OCc1ccccc1` [MG132] (Cbz-Leu-Leu-Leu-aldehyde), in the data set on HCT116 cells [1], the “aggregate numbers in WT and reconstituted cell lines” value was “enhance aggregate numbers in WT and reconstituted cell lines”; the “re-appearance of aggregates in DCAF15−/− cells” value is “we do not detect any re-appearance of aggregates in DCAF15−/− cells after treatments”.
Regarding `COc1ccc(C[C@H](N)C(=O)N[C@H]2[C@@H](O)[C@H](n3cnc4c(N(C)C)ncnc43)O[C@@H]2CO)cc1` [Puromycin, puromycin], in the data set on HCT116 cells; BE2C cells, the “protein aggregation (co-localization of ubiquitin and p62)” value was “significant reduction of aggregates in DCAF15−/− cells relative to WT and reconstituted cell lines”. Besides, the “clonogenic survival, sensitivity of DCAF15−/− cells” value in the data set with HCT116 cells [2] (7 days, crystal violet (FIGS. 4B and 4C)) is given as “insensitivity of DCAF15−/− cells to puromycin-induced toxicity”. Moreover, in the data set with HCT116 cells [2] (release for 72 h (FIG. 4A)), the “proliferation of DCAF15−/− cells” value is recorded as “DCAF15−/− cells remain undeterred by puromycin treatment”; the “proliferation rates in WT and reconstituted cell lines” value is on record as “significantly reduced proliferation rates”.
As to `NS(=O)(=O)c1ccc(S(=O)(=O)Nc2cccc3c(Cl)c[nH]c23)cc1` [indisulam], the “ligand for DCAF15” value in the data set on DCAF15 is reported as “act as ligands for DCAF15”. For the same compound, in the data set with human cancer cell lines, the inhibition of proliferation result is reported as “inhibits the proliferation of certain human cancer cell lines”.
`O=C(NS(=O)(=O)c1ccc(Br)s1)c1ccc(Cl)cc1Cl` [tasisulam]: the “ligand for DCAF15” value in the data set with DCAF15 was “act as ligands for DCAF15”.
